Results: US10633338B2, “Binding Function 3 (BF3) site compounds as therapeutics and methods for their use” (THE UNIVERSITY OF BRITISH COLUMBIA, priority 2014, dated 2020)
pIC50: −log10 of the molar value. Read-outs that look alike come from different tables or passages of the source.

How the values were obtained:
PSA = assay: Prostate Surface Antigen (PSA) assay, PSA excreted into the media; assay type: cell-based, human; details: same plates as eGFP assay
Experimental: The evaluation of PSA excreted into the media was performed in parallel to the eGFP assay using the same plates (see above description). After the cells were incubated for 3 days 150 μl of the media was taken from each well, and added to 150 μl of PBS.

androgen receptor (AR) = biological target: T1, androgen receptor (AR) (Homo sapiens, UniProt P10275, T878A); assay: eGFP cellular AR transcription assay; assay type: cell-based
T1 construct: stably transfected eGFP-expressing LNCaP human prostate cancer cells (LN-ARR2PB-eGFP) containing an androgen responsive probasin-derived promoter; endogenous in cells; host or cells: LNCaP (LN-ARR2PB-eGFP)
T1 sequence (P10275 1-920 T878A): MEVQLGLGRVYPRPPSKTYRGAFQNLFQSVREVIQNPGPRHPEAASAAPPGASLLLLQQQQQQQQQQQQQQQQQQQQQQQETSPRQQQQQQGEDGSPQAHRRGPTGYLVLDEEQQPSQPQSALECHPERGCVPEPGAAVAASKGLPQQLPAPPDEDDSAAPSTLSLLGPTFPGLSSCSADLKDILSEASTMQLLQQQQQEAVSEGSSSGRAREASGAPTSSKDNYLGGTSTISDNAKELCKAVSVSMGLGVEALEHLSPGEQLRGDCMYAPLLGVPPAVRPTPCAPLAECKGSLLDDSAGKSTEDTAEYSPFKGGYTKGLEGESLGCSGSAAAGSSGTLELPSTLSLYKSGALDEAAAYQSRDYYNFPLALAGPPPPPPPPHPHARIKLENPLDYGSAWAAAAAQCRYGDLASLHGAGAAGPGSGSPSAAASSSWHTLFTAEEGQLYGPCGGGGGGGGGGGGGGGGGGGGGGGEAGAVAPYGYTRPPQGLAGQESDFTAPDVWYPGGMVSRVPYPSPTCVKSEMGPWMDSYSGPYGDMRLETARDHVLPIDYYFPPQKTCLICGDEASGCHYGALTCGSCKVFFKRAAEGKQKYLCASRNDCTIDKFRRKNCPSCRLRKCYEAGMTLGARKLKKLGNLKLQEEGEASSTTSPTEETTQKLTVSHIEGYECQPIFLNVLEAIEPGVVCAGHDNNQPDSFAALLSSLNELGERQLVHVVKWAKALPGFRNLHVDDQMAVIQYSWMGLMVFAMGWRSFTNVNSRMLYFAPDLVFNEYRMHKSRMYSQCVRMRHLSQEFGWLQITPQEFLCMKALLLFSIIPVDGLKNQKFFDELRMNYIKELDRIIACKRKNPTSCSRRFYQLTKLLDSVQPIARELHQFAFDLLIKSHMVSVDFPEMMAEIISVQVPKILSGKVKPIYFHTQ
In short: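 AR transcriptional activity is read as eGFP expression from a probasin-derived androgen-responsive promoter. Compound titrated 0-100 μM in the presence of 0.1 nM R1881; 35,000 cells/well.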

[1] = Homo sapiens, 72 h, media after 3 days, read-out: IC50 (PSA)
[2] = LN-ARR2PB-eGFP LNCaP cells, 0.1 nM R1881, 3 days, 0-100 μM compound, read-out: IC50 (eGFP)
[3] = media after 3 days, read-out: IC50 (PSA)
[4] = LN-ARR2PB-eGFP LNCaP cells, 0.1 nM R1881, 3 days, 0-100 μM compound
[5] = Homo sapiens, 72 h, PSA excreted into media, 3 days incubation, read-out: PSA IC50
[6] = LN-ARR2PBeGFP LNCaP cells, 0.1 nM R1881, 3 days incubation, read-out: eGFP IC50

| SMILES | pIC50 (PSA; [1]) | pIC50 (androgen receptor (AR); [2]) | pIC50 (PSA; [5]) | pIC50 (androgen receptor (AR); [6]) | further results |
| --- | --- | --- | --- | --- | --- |
| Cc1cccc2c(-c3cccnc3)c[nH]c12 [13 655] | 6.21 | 5.78 | – | – | – |
| c1ccc2cc(-c3c[nH]c4cnccc34)ccc2c1 [13 675] | – | 6.35 | – | – | pIC50 (PSA; [3]): 6.33 |
| c1ccc2cc(-c3c[nH]c4ncccc34)ccc2c1 [13 676] | 7.47 | 7.28 | – | – | – |
| Cc1cccc2c(-c3ccc4c(Br)cccc4n3)c[nH]c12 [13 678] | – | – | – | – | IC50 (PSA) (PSA; media after 3 days): IC50 (PSA) = Inactive; IC50 (eGFP) (androgen receptor (AR); [4]): IC50 (eGFP) = Inactive |
| Cc1cccc2c(-c3ccc4c(Br)ccc(Br)c4n3)c[nH]c12 [13 679] | – | – | – | – | IC50 (PSA) (PSA; media after 3 days): IC50 (PSA) = Inactive; IC50 (eGFP) (androgen receptor (AR); [4]): IC50 (eGFP) = Inactive |
| Brc1ccc2[nH]cc(-c3ccc4ccccc4n3)c2c1 [13 683] | 5.72 | 5.59 | – | – | – |
| c1ccc2ncc(-c3n[nH]c4ccccc34)cc2c1 [13 684] | 5.18 | 5.85 | – | – | – |
| c1ccc2cc(-c3c[nH]c4ccncc34)ccc2c1 [13 685] | – | – | – | – | IC50 (PSA) (PSA; media after 3 days): IC50 (PSA) = Inactive; IC50 (eGFP) (androgen receptor (AR); [4]): IC50 (eGFP) = Inactive |
| Oc1cc2ccccc2cc1-c1nc2ccccc2[nH]1 [13 687] | – | – | – | – | IC50 (PSA) (PSA; media after 3 days): IC50 (PSA) = Inactive; IC50 (eGFP) (androgen receptor (AR); [4]): IC50 (eGFP) = Inactive |
| c1ccc2c(Cc3nn[nH]n3)c[nH]c2c1 [13 700] | – | – | – | – | IC50 (PSA) (PSA; media after 3 days): IC50 (PSA) = Inactive; IC50 (eGFP) (androgen receptor (AR); [4]): IC50 (eGFP) = Inactive |
| c1ccc2c(-c3nn[nH]n3)c[nH]c2c1 [13 701] | – | – | – | – | IC50 (PSA) (PSA; media after 3 days): IC50 (PSA) = Inactive; IC50 (eGFP) (androgen receptor (AR); [4]): IC50 (eGFP) = Inactive |
| O=[N+]([O-])c1cccc2c(-c3ccc4ccccc4c3)c[nH]c12 [13 702] | 6.85 | 6.70 | – | – | – |
| c1ccc2cc(-c3c[nH]c4cccnc34)ccc2c1 [13 703] | 7.01 | 7.00 | – | – | – |
| c1ccc(-c2ccc(-c3c[nH]c4ncccc34)cc2)cc1 [13 715] | 6.46 | 5.39 | – | – | – |
| Brc1ccc(-c2c[nH]c3ncccc23)cc1 [13 716] | 7.24 | 7.17 | – | – | – |
| Cc1cccc2c(-c3ccc(-c4ccccc4)cc3)c[nH]c12 [13 733] | 6.04 | 5.42 | – | – | – |
| c1ccc(-c2cccc(-c3c[nH]c4ncccc34)c2)cc1 [13 734] | 5.38 | 4.96 | – | – | – |
| c1ccc(-c2ccc(-c3c[nH]c4cccnc34)cc2)cc1 [13 735] | 5.84 | 5.41 | – | – | – |
| COC(=O)c1cccc2c(-c3ccc(Br)cc3)c[nH]c12 [13 736] | 6.17 | 6.21 | – | – | – |
| Brc1ccc(-c2c[nH]c3cccnc23)cc1 [13 737] | 7.43 | 7.10 | – | – | – |
| O=[N+]([O-])c1cccc2c(-c3ccc(Br)cc3)c[nH]c12 [13 738] | 7.21 | 7.08 | – | – | – |
| c1ccc(-c2c[nH]c3ncccc23)cc1 [13 739] | 6.17 | 6.18 | – | – | – |
| Fc1ccc(-c2c[nH]c3ncccc23)cc1 [13 740] | 6.92 | 6.92 | – | – | – |
| FC(F)(F)c1ccc(-c2c[nH]c3ccccc23)nc1 [13 741] | 6.54 | 6.54 | – | – | – |
| FC(F)(F)c1ccc(-c2c[nH]c3ccccc23)cc1 [13 743] | 6.41 | 6.42 | – | – | – |
| Cc1cccc2c(-c3ccc4cccnc4c3)c[nH]c12 [13 744] | 6.12 | 6.12 | – | – | – |

| SMILES | pIC50 (PSA; [1]) | pIC50 (androgen receptor (AR); [2]) | pIC50 (PSA; [5]) | pIC50 (androgen receptor (AR); [6]) | further results |
| --- | --- | --- | --- | --- | --- |
| FC(F)(F)c1ccccc1-c1c[nH]c2ccccc12 [13 745] | 6.02 | 6.00 | – | – | – |
| Cn1ccc2cc(-c3ccc4ccccc4c3)ccc21 [13 756] | 5.83 | 5.70 | – | – | – |
| Cc1cccc2c(-c3ccc4ncsc4c3)c[nH]c12 [13 757] | – | – | – | – | IC50 (PSA) (PSA; media after 3 days): IC50 (PSA) = Inactive; IC50 (eGFP) (androgen receptor (AR); [4]): IC50 (eGFP) = Inactive |
| Cc1cccc2c(-c3ccc4scnc4c3)c[nH]c12 [13 758] | – | – | – | – | IC50 (PSA) (PSA; media after 3 days): IC50 (PSA) = Inactive; IC50 (eGFP) (androgen receptor (AR); [4]): IC50 (eGFP) = Inactive |
| Cc1cccc2c(-c3ccc4ocnc4c3)c[nH]c12 [13 759] | 6.57 | 6.52 | – | – | – |
| Cc1cccc2c(-c3nc4ccccc4s3)c[nH]c12 [13 760] | – | 7.00 | – | – | pIC50 (PSA; [3]): 6.28 |
| O=C(c1cc2cc(F)ccc2[nH]1)N(Cc1ccco1)Cc1ccco1 [Compound 9125] | – | – | 5.62 | 5.28 | – |
| Cc1ccc(CN(C(=O)c2cc3ccccc3[nH]2)C(C)C)o1 [Compound 9128] | – | – | 5.46 | 5.49 | – |
| c1ccc2[nH]c(-c3c[nH]c4ccccc34)cc2c1 [Compound 13127] | – | – | 6.96 | 5.68 | – |
| Fc1ccc(Nc2nc3ccccc3[nH]2)cc1Cl [Compound 13145] | – | – | 5.61 | 5.77 | – |
| c1ccc2c(c1)C[C@@H](c1c[nH]c3ccccc13)N2 [Compound 13163-A] | – | – | 6.80 | 6.32 | – |
| c1ccc2c(c1)C[C@H](c1c[nH]c3ccccc13)N2 [Compound 13163-B] | – | – | 6.62 | 6.32 | – |
| CN1c2ccccc2C[C@H]1c1c[nH]c2ccccc12 [Compound 13164-A] | – | – | 6.17 | 6.11 | – |
| CN1c2ccccc2C[C@@H]1c1c[nH]c2ccccc12 [Compound 13164-B] | – | – | 5.80 | 5.89 | – |
| Cn1cc(-c2cc3ccccc3n2C)c2ccccc21 [Compound 13166] | – | – | 5.67 | 5.80 | – |
| O=Nc1c(-c2c[nH]c3ccccc23)[nH]c2ccccc12 [Compound 13167] | – | – | 5.90 | 5.72 | – |
| Cc1ccccc1CSc1c(C)[nH]c2ccccc12 [Compound 13222] | – | – | 6.13 | 6.02 | – |
| Cc1ccc(/N=N/c2c[nH]c3ccccc23)c(C)c1 [Compound 13225] | – | – | – | 6.15 | pIC50 (PSA; PSA excreted into media, 3 days incubation, read-out: PSA IC50): 6.05 |
| Clc1cccc(/N=N/c2c[nH]c3ccccc23)c1 [Compound 13226] | – | – | 7.12 | 6.96 | – |
| C(=C\c1c[nH]c2ccccc12)/c1ccccc1 [Compound 13235] | – | – | 6.00 | 5.66 | – |
| C[C@@H]1Cc2ccccc2N1c1nc2ccccc2o1 [Compound 13245] | – | – | 5.77 | 5.77 | – |
| Clc1ccccc1/N=N/c1c[nH]c2ccccc12 [Compound 13255] | – | – | 6.34 | 6.30 | – |
| FC(F)(F)c1ccccc1/N=N/c1c[nH]c2ccccc12 [Compound 13259] | – | – | 6.60 | 6.52 | – |
| COc1ccc(/N=C/c2c[nH]c3ccccc23)cc1 [Compound 13300] | – | – | 5.17 | 5.03 | – |
| Clc1cc(Cl)cc(/N=C/c2c[nH]c3ccccc23)c1 [Compound 13304] | – | – | 5.34 | 5.14 | – |
